Values quoted from earlier work, collected in patent US10905730B2, “Phytocannabinoid topical compositions for releiving pain” (priority 2017, dated 2021).
Read-outs that look alike come from different tables or passages of the source.

Structure (SMILES): C=C(C)[C@@H]1CCC(C)=C[C@H]1c1c(O)cc(CCCCC)cc1O [CBD, cannabidiol]
- solubility in organic solvents: soluble in organic solvents such as pentane
- solubility in water: insoluble in water
- chemical stability (acidic conditions): cyclizes to THC
- chemical stability (strongly basic media and presence of air): oxidized to a quinone
